“And” between values parts separate entries of the source, which are not always exact repeats. Identical values can stand only once.
Test: xn = mol fraction of the nth substance listed

O=C(O)c1ccccc1 + CC(C)=O
viscosity, 101 kPa
Conditions | 298.15 K | 303.15 K | 308.15 K | 313.15 K | 318.15 K
x1 = 0.201 | – | – | 0.6647 mPa·s | – | 0.5884 mPa·s
x1 = 0.2103 | 0.755 mPa·s | 0.7075 mPa·s | 0.6647 mPa·s | 0.6278 mPa·s | 0.5884 mPa·s
x1 = 0.213 | – | – | 0.6741 mPa·s | – | 0.5924 mPa·s
x1 = 0.229 | – | 0.7776 mPa·s | 0.7283 mPa·s and 0.7283 mPa·s | 0.6819 mPa·s | 0.6407 mPa·s and 0.6407 mPa·s
x1 = 0.247 | – | – | 0.75 mPa·s | – | 0.6571 mPa·s

CNC(=O)NC + O
101 kPa
Conditions | viscosity [mPa·s]
293.15 K, x1 = 0.000596 | 1.045
293.15 K, x1 = 0.06729 | 2.325
293.15 K, x1 = 0.08722 | 2.805
298.15 K, x1 = 0.1358 | 3.535
298.15 K, x1 = 0.2199 | 5.955
303.15 K, x1 = 0.08722 | 2.055
308.15 K, x1 = 0.11 | 2.135
308.15 K, x1 = 0.1358 | 2.545
313.15 K, x1 = 0.1358 | 2.195

CCC(C)=O + CCCCCC
298 K, 101.33 kPa
Conditions | viscosity [mPa·s]
x1 = 0.055 | 0.3018
x1 = 0.2337 | 0.3032
x1 = 0.2985 | 0.3054
x1 = 0.4168 | 0.3122
x1 = 0.5063 | 0.3211
x1 = 0.6043 | 0.3277
x1 = 0.6943 | 0.3371
x1 = 0.8004 | 0.3496
x1 = 0.9053 | 0.3647

COC(C)=O + CCCCO
298.15 K, 101.33 kPa
Conditions | viscosity [mPa·s]
x1 = 0.0786 | 1.953
x1 = 0.144 | 1.566
x1 = 0.2105 | 1.28
x1 = 0.2986 | 1.019
x1 = 0.4151 | 0.791
x1 = 0.4971 | 0.677
x1 = 0.5919 | 0.576
x1 = 0.6406 | 0.534
x1 = 0.7116 | 0.484
x1 = 0.7972 | 0.44
x1 = 0.9034 | 0.402

COCCOC + CCCO
viscosity [mPa·s]
Conditions | 298.15 K | 308.15 K
101 kPa, x1 = 0.0072 | 1.874 | 1.467
101 kPa, x1 = 0.01 | 1.864 | 1.448
101 kPa, x1 = 0.0347 | 1.697 | 1.336
101 kPa, x1 = 0.0524 | 1.598 | 1.274
101 kPa, x1 = 0.06899 | 1.588 | –
101 kPa, x1 = 0.0834 | 1.443 | 1.16
101 kPa, x1 = 0.1171 | 1.304 | 1.055
101 kPa, x1 = 0.1378 | 1.223 | 1.008
101 kPa, x1 = 0.1429 | 1.264 | –
101 kPa, x1 = 0.1976 | 1.05 | 0.902
101 kPa, x1 = 0.2223 | 1.056 | –
101 kPa, x1 = 0.2436 | 0.946 | 0.816
101 kPa, x1 = 0.2925 | 0.879 | 0.741
101 kPa, x1 = 0.3078 | 0.8591 | –
101 kPa, x1 = 0.3507 | 0.807 | 0.682
101 kPa, x1 = 0.4001 | 0.7303 | –
101 kPa, x1 = 0.4082 | 0.747 | 0.645
101 kPa, x1 = 0.4355 | 0.695 | 0.622
101 kPa, x1 = 0.4665 | 0.684 | 0.601
101 kPa, x1 = 0.5001 | 0.6269 | –
101 kPa, x1 = 0.5064 | 0.635 | 0.579
101 kPa, x1 = 0.5539 | 0.604 | 0.557
101 kPa, x1 = 0.605 | 0.573 | 0.533
101 kPa, x1 = 0.6088 | 0.5528 | –
101 kPa, x1 = 0.6728 | 0.54 | 0.508
101 kPa, x1 = 0.7247 | 0.519 | 0.495
101 kPa, x1 = 0.7273 | 0.4945 | –
101 kPa, x1 = 0.7669 | 0.503 | 0.483
101 kPa, x1 = 0.8206 | 0.488 | 0.475
101 kPa, x1 = 0.8572 | 0.4482 | –
101 kPa, x1 = 0.8747 | 0.473 | 0.479
101 kPa, x1 = 0.9605 | 0.461 | 0.45
101 kPa, x2 = 0.0061 | 0.452 | 0.448
101.33 kPa, x1 = 0.0095 | 1.881 | –
101.33 kPa, x1 = 0.0215 | 1.798 | –
101.33 kPa, x1 = 0.0405 | 1.678 | –
101.33 kPa, x1 = 0.0628 | 1.552 | –
101.33 kPa, x1 = 0.0941 | 1.397 | –
101.33 kPa, x1 = 0.1096 | 1.329 | –
101.33 kPa, x1 = 0.1355 | 1.228 | –
101.33 kPa, x1 = 0.1741 | 1.109 | –
101.33 kPa, x1 = 0.2034 | 1.024 | –
101.33 kPa, x1 = 0.2436 | 0.942 | –
101.33 kPa, x1 = 0.2926 | 0.842 | –
101.33 kPa, x1 = 0.3474 | 0.764 | –
101.33 kPa, x1 = 0.3848 | 0.722 | –
101.33 kPa, x1 = 0.4255 | 0.678 | –
101.33 kPa, x1 = 0.4764 | 0.636 | –
101.33 kPa, x1 = 0.5241 | 0.6 | –
101.33 kPa, x1 = 0.57 | 0.572 | –
101.33 kPa, x1 = 0.6239 | 0.536 | –
101.33 kPa, x1 = 0.6795 | 0.509 | –
101.33 kPa, x1 = 0.7142 | 0.495 | –
101.33 kPa, x1 = 0.7632 | 0.476 | –
101.33 kPa, x1 = 0.8198 | 0.459 | –
101.33 kPa, x1 = 0.8625 | 0.447 | –
101.33 kPa, x1 = 0.9004 | 0.439 | –
101.33 kPa, x1 = 0.9269 | 0.435 | –
101.33 kPa, x1 = 0.959 | 0.427 | –
101.33 kPa, x2 = 0.0158 | 0.424 | –

COc1ccccc1N + ClC(Cl)(Cl)Cl
viscosity [mPa·s], 100 kPa
Conditions | x2 = 0.0821 | x2 = 0.1726 | x2 = 0.2547 | x2 = 0.3403 | x2 = 0.4788 | x2 = 0.5789 | x2 = 0.6781 | x2 = 0.7641 | x2 = 0.8447
298.15 K | 5.011 | 4.611 | 4.247 | 3.866 | 3.249 | 2.8 | 2.355 | 1.967 | 1.603
303.15 K | 4.596 | 4.234 | 3.904 | 3.559 | 2.996 | 2.587 | 2.179 | 1.824 | 1.489
308.15 K | 4.218 | 3.892 | 3.593 | 3.28 | 2.768 | 2.394 | 2.02 | 1.694 | 1.385
313.15 K | 3.917 | 3.619 | 3.346 | 3.057 | 2.585 | 2.239 | 1.892 | 1.587 | 1.299
318.15 K | 3.643 | 3.371 | 3.121 | 2.856 | 2.42 | 2.099 | 1.776 | 1.491 | 1.221

CCCCCCOC(C)=O + CCCCCO
viscosity [mPa·s], 101.33 kPa
Conditions | x1 = 0.1057 | x1 = 0.2038 | x1 = 0.3074 | x1 = 0.4005 | x1 = 0.5019 | x1 = 0.6009 | x1 = 0.7083 | x1 = 0.8029 | x1 = 0.9041
293.15 K | 3.347 | 2.798 | 2.346 | 2.028 | 1.755 | 1.548 | 1.373 | 1.253 | 1.153
303.15 K | 2.392 | 2.002 | 1.682 | 1.456 | 1.262 | 1.115 | 0.991 | 0.906 | 0.835
313.15 K | 1.889 | 1.594 | 1.352 | 1.181 | 1.035 | 0.924 | 0.83 | 0.766 | 0.712

COC(C)=O + ClCCCl
303.15 K, 101.3 kPa
Conditions | viscosity [mPa·s]
x1 = 0.1016 | 0.6754
x1 = 0.199 | 0.6342
x1 = 0.2978 | 0.594
x1 = 0.4014 | 0.5517
x1 = 0.4966 | 0.5168
x1 = 0.5959 | 0.4819
x1 = 0.6976 | 0.4445
x1 = 0.8973 | 0.378

CCCCCCCC(=O)OCC + CCCCCCCCCCCCCCCC
Conditions | viscosity [mPa·s]
295.04 K, 103 kPa, x2 = 0.5 | 2.176
298.65 K, 103 kPa, x2 = 0.25 | 1.72
312.63 K, 101 kPa, x2 = 0.5 | 1.583
